Test results as given in article PMC13495017 (ACS Bio & Med Chem Au, 2026).

Legend:
Type in all cases: cell-based
CB2 L182I = CB2 L182I (Homo sapiens, UniProt P34972, L182I); assay: BRET Gαi1 engagement, CB2 L182I mutant; conditions: read-out: E max, CB2 L182I Gαi1 Engagement
CB2 V261L = CB2 V261L (Homo sapiens, UniProt P34972, V261L); assay: BRET Gαi1 engagement, CB2 V261L mutant; conditions: read-out: E max, CB2 V261L Gαi1 Engagement
CB1 L193I = CB1 L193I (Homo sapiens, UniProt P21554, L193I); assay: BRET Gαi1 engagement, CB1 L193I mutant; conditions: read-out: E max, CB1 L193I Gαi1 Engagement
CB1 L193I, sequence (P21554 whole entry L193I): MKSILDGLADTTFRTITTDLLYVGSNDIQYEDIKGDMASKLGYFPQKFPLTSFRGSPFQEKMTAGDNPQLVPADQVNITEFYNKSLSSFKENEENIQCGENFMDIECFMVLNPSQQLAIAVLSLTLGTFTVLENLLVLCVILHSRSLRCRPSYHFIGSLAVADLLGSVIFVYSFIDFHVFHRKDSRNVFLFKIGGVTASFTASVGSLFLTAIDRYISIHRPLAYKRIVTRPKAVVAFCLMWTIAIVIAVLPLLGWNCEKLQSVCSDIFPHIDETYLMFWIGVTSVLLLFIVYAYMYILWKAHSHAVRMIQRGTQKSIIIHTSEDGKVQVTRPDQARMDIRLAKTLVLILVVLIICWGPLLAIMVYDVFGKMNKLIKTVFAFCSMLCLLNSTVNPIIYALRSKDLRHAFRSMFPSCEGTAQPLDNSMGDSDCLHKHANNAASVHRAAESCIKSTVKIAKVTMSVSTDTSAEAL

[1] = biological target: CB2 triple mutant (I110L/L182I/V261L) (Homo sapiens, UniProt P34972, I110L/L182I/V261L); assay: BRET Gαi1 engagement, CB2 triple mutant; conditions: read-out: E max, CB2 Triple Mutations Gαi1 Engagement
CB2 triple mutant (I110L/L182I/V261L), sequence (P34972 whole entry I110L/L182I/V261L): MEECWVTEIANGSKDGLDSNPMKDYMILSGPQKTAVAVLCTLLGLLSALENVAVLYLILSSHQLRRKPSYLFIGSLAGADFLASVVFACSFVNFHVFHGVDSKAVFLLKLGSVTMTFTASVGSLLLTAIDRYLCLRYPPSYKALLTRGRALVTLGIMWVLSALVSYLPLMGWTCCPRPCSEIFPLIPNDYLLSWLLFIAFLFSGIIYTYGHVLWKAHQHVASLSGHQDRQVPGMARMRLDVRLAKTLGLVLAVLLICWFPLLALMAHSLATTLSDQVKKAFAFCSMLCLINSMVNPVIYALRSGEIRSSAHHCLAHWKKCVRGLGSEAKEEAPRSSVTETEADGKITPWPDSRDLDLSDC

CB2 [2] = biological target: T1, CB2 (Homo sapiens, UniProt P34972); assay: BRET Gαi1 engagement, CB2 wild-type; conditions: HEK-293T, read-out: E max, CB2 Gαi1 Engagement
T1 sequence (P34972 whole entry): as the sequence (P34972 whole entry I110L/L182I/V261L) above, with L110I, I182L, L261V counted along it

CB2 I110L = CB2 I110L (Homo sapiens, UniProt P34972, I110L); assay: BRET Gαi1 engagement, CB2 I110L mutant; conditions: read-out: E max, CB2 I110L Gαi1 Engagement
CB2 I110L, sequence (P34972 whole entry I110L): as the sequence (P34972 whole entry I110L/L182I/V261L) above, with I182L, L261V counted along it

CB2 [3] = biological target: T1, CB2; assay: BRET β-arrestin 2 recruitment, CB2 wild-type; conditions: HEK-293T, read-out: E max, CB2 β-Arrestin 2 Recruitment
CB1 = CB1 (Homo sapiens, UniProt P21554); assay: BRET Gαi1 engagement, CB1 wild-type; conditions: CB1 WT, HEK-293T, normalized against CP55940, mean ± SEM
CB1, sequence (P21554 whole entry): as the sequence (P21554 whole entry L193I) above, with I193L counted along it

CB1 I267L = CB1 I267L (Homo sapiens, UniProt P21554, I267L); assay: BRET Gαi1 engagement, CB1 I267L mutant; conditions: read-out: E max, CB1 I267L Gαi1 Engagement
CB1 I267L, sequence (P21554 whole entry I267L): as the sequence (P21554 whole entry L193I) above, with I193L, I267L counted along it

CB2 L182I, sequence (P34972 whole entry L182I): as the sequence (P34972 whole entry I110L/L182I/V261L) above, with L110I, L261V counted along it
CB2 V261L, sequence (P34972 whole entry V261L): as the sequence (P34972 whole entry I110L/L182I/V261L) above, with L110I, I182L counted along it

In the case of `CCCCCCC(C)(C)c1ccc([C@@H]2C[C@H](O)CC[C@H]2CCCO)c(O)c1` [CP55940], the Emax (CB2 L182I) is reported as 32.2 ± 2.5%, the Emax (CB2 V261L) is reported as 33.8 ± 2.6% and the Emax (CB1 L193I) is reported as 98.2 ± 2.2%. It also gave an Emax [1] of 3 ± 2%, an Emax (CB2 [2]) of 99.8 ± 2.7% and an Emax (CB2 I110L) of 83.1 ± 2.8%. For the same compound, the Emax (CB2 [3]) was 99.7 ± 2.7%, the “E max, CB1 Gαi1 Engagement” value (CB1) was 99.4 ± 3.0% and the Emax (CB1 I267L) was 77.6 ± 2.5%.
